The source of these data is ChEMBL document CHEMBL5137069, “Discovery of Potent and Orally Bioavailable Pyridine N-Oxide-Based Factor XIa Inhibitors through Exploiting Nonclassical Interactions” (J Med Chem, 2022).

Data set [1] in a line: Clearance in Beagle dog assessed as liver blood flow at 5 mg/kg, po and 1 mg/kg, iv. It counts as ADME, organism-based, Canis lupus familiaris. The settings on record: in vivo.
Data set [2] in a line: Stability in human liver microsomes assessed as half-life. It counts as ADME, Microsome. On the technique in general: Liver microsomes are vesicles of endoplasmic reticulum, rich in cytochrome P450 enzymes.
Data set [3] can be described thus: Oral Bioavailability in Sprague-Dawley rat at 10 mg/kg. It counts as ADME, organism-based. The settings on record: in vivo.
The nature of data set [4]: AUC in Sprague-Dawley rat at 10 mg/kg, po. The class given is ADME, organism-based. Also noted: dose 10 mg/kg, route po. The following applies: in vivo.
A short description of data set [5]: Volume of distribution at steady state in Cynomolgus monkey at 5 mg/kg, po and 1 mg/kg, iv. The class given is ADME, organism-based, Macaca fascicularis. The following applies: in vivo.
The nature of data set [6]: Equilibrium solubility of compound at pH 6.8 by HPLC analysis. The class given is physicochemical. The settings on record: buffer.
Data set [7] can be described thus: Half-life in Cynomolgus monkey at 5 mg/kg, po and 1 mg/kg, iv. It counts as ADME, organism-based, Macaca fascicularis. The following applies: in vivo.
Data set [8] is described as follows: AUC in Beagle dog at 1 mg/kg, iv. It counts as ADME, organism-based, Canis lupus familiaris. Also noted: dose 1 mg/kg, route iv. The settings on record: in vivo.
Data set [9] can be described thus: Clearance in Cynomolgus monkey assessed as liver blood flow at 5 mg/kg, po and 1 mg/kg, iv. It counts as ADME, organism-based, Macaca fascicularis. The following applies: in vivo.
Data set [10] in a line: Hal-life in Beagle dog at 5 mg/kg, po and 1 mg/kg, iv. The class given is ADME, organism-based, Canis lupus familiaris. The settings on record: in vivo.
Data set [11] in a line: Clearance in Sprague-Dawley rat assessed as liver blood flow at 10 mg/kg, po and 2 mg/kg, iv. It counts as ADME, organism-based. The following applies: in vivo.
A short description of data set [12]: AUC in Beagle dog at 5 mg/kg, po. It counts as ADME, organism-based, Canis lupus familiaris. Details: dose 5 mg/kg, route po. The following applies: in vivo.
Data set [13] in a line: Drug concentration in plasma of anesthetized New Zealand White rabbit model of AV shunt-induced thrombosis at […], administered as iv bolus dose and subsequently followed by 0.8 mg/kg/hr as iv infusion from 20 min prior to 40 min after establishment of AV shunt by LC-MS/MS analysis. It counts as ADME, organism-based, Oryctolagus cuniculus. The following applies: time 60 min.

A short description of data set [14]: Drug concentration in plasma of anesthetized New Zealand White rabbit model of AV shunt-induced thrombosis at 8.5 mg/kg, administered as iv bolus dose and subsequently followed by 10 mg/kg/hr as iv infusion from 20 min prior to 40 min after establishment of AV shunt by LC-MS/MS analysis. The following applies: time 60 min. It counts as ADME, organism-based, Oryctolagus cuniculus.

A short description of data set [15]: Equilibrium solubility of compound at pH 1.2 by HPLC analysis. It counts as physicochemical. The following applies: buffer.
A short description of data set [16]: AUC in Sprague-Dawley rat at 2 mg/kg, iv. It counts as ADME, organism-based. Details: dose 2 mg/kg, route iv. The settings on record: in vivo.
Data set [17] in a line: Volume of distribution at steady state in Beagle dog at 5 mg/kg, po and 1 mg/kg, iv. The class given is ADME, organism-based, Canis lupus familiaris. The following applies: in vivo.
The nature of data set [18]: AUC in Cynomolgus monkey at 5 mg/kg, po. It counts as ADME, organism-based, Macaca fascicularis. Details: dose 5 mg/kg, route po. The settings on record: in vivo.
Data set [19] in a line: AUC in Cynomolgus monkey at 1 mg/kg, iv. The class given is ADME, organism-based, Macaca fascicularis. Details: dose 1 mg/kg, route iv. The settings on record: in vivo.
Data set [20] in a line: Volume of distribution at steady state in Sprague-Dawley rat at 10 mg/kg, po and 2 mg/kg, iv. The class given is ADME, organism-based. The following applies: in vivo.
Data set [21] is described as follows: Oral bioavailability in Cynomolgus monkey at 5 mg/kg. It counts as ADME, organism-based, Macaca fascicularis. The settings on record: in vivo.
A short description of data set [22]: Oral bioavailability in Beagle dog at 5 mg/kg. It counts as ADME, organism-based, Canis lupus familiaris. The settings on record: in vivo.
The nature of data set [23]: Stability in rat liver microsomes assessed as half-life. It counts as ADME, Microsome.
Data set [24] in a line: Half-life in Sprague-Dawley rat at 10 mg/kg, po and 2 mg/kg, iv. The class given is ADME, organism-based. The following applies: in vivo.
Data set [25] in a line: Oral bioavailability in Sprague-Dawley rat at 10 mg/kg administered as PEG-400/water/EtOH (7:2:1) formulation. The class given is ADME, organism-based. The settings on record: in vivo.
A short description of data set [26]: Oral bioavailability in Sprague-Dawley rat at 10 mg/kg administered as 20% HPbCD formulation. It counts as ADME, organism-based. The settings on record: in vivo.

Each structure is given as a SMILES string. In brackets after ≈: the same amount, converted by molar mass.

Usually half-life stands for the time in which the quantity being followed falls by half. Broadly, the bioavailability is the share of a dose that reaches the circulation, judged against a reference dose that is usually intravenous. By AUC is commonly meant the area under the concentration-time curve, a measure of exposure. One may read the thermodynamic solubility as the concentration in solution at equilibrium with solid. Consider `Cn1nncc1-c1cnn([C@H](CCOC(F)F)c2ccc(-c3c(-n4cc(Cl)nn4)ccc(Cl)c3F)c[n+]2[O-])c1`, for which the values for the LBF in data set [1], in [9] and in [11] were 25%, 58% and 12%, respectively. For the same compound, the half-life in data set [2] was greater than 3.08 h; in [7], 1 h; in data set [10], 2 h; in data set [23] it was greater than 3.08 h; in data set [24], 1.4 h. The bioavailability in data set [3] came to 36.4%; in [21], 43%; in data set [22], 80.5%. Further, the AUC in data set [4] was 10 µM·h; in data set [8] it was 3.7 µM·h; in data set [12], 14.7 µM·h; in data set [16], 5.5 µM·h; in data set [18], 2.5 µM·h; in [19], 1.1 µM·h. Besides, the figures for the Vdss in [5], in data set [17] and in data set [20] were 1.5 L/kg, 1.5 L/kg and 0.8 L/kg, respectively. Besides, the solubility (thermodynamic) in [6] amounted to 172 µM (≈ 99.6 µg/mL); in data set [15], 81 µM (≈ 47 µg/mL). For the same compound, the concentration at 1 h in [13] came to 1.08 µM; in [14], 7.5 µM.
Consider `Cn1nncc1-c1cnn([C@H](CCOC(F)F)c2ccc(-c3c(-n4cnnn4)ccc(Cl)c3F)c[n+]2[O-])c1`, for which the half-life in [2] and in data set [23] was greater than 3.08 h each time.
Turning to `Cn1nncc1-c1cnn([C@H](CCOC(F)F)c2ccc(-c3c(-n4cc(C(F)(F)F)nn4)ccc(Cl)c3F)c[n+]2[O-])c1`, the half-life was greater than 3.08 h in data set [2] and 2.42 h in data set [23].
`COCC[C@H](c1ccc(-c2c(-n3cc(Cl)nn3)ccc(Cl)c2F)c[n+]1[O-])n1cc(-c2cnnn2C)cn1`: the results for the half-life in [2] and in data set [23] were 0.9 h and 0.783 h, respectively.
Taken in the same sequence, the figures for `COCC[C@H](c1ccc(-c2c(-n3cnnn3)ccc(Cl)c2F)c[n+]1[O-])n1cc(-c2cnnn2C)cn1` were 2.83 h and 0.833 h.
For `Cn1nncc1-c1cnn([C@H](Cn2cc(F)cn2)c2ccc(-c3c(-n4cc(Cl)nn4)ccc(Cl)c3F)c[n+]2[O-])c1` the same measures were greater than 3.08 h and 1.47 h.
In turn, `COC(=O)Nc1ccc(-c2cnn([C@H](CC3CC3)c3ccc(-c4c(-n5cnnn5)ccc(Cl)c4F)c[n+]3[O-])c2)cc1` displayed a bioavailability in data set [25] of 59.6%.
Turning to `Cn1nncc1-c1cnn([C@H](Cc2ccn(C(F)F)n2)c2ccc(-c3c(-n4cc(C(F)(F)F)nn4)ccc(Cl)c3F)c[n+]2[O-])c1`, the half-life was greater than 3.08 h in [2] and 2.33 h in [23].
For `Cn1nncc1-c1cnn([C@H](Cc2ccc(F)cc2)c2ccc(-c3c(-n4cnnn4)ccc(Cl)c3F)c[n+]2[O-])c1` the same measures were greater than 3.08 h and 0.8 h.
For `Cn1nncc1-c1cnn([C@H](Cc2ccc(F)cc2)c2ccc(-c3c(-n4cc(Cl)nn4)ccc(Cl)c3F)c[n+]2[O-])c1` the same measures were 1.47 h and 1.28 h.
With `Cn1nncc1-c1cnn([C@H](CC2CC2)c2ccc(-c3c(-n4cnnn4)ccc(Cl)c3F)c[n+]2[O-])c1`, the half-life in data set [2] and in data set [23] was greater than 3 h in each case.
Regarding `Cn1cncc1-c1cnn([C@H](CC2CC2)c2ccc(-c3c(-n4cnnn4)ccc(Cl)c3F)c[n+]2[O-])c1`, the half-life was 0.6 h in data set [2] and 1.07 h in data set [23].
`COC(=O)Nc1ccc(-c2cnn(C(CC3CC3)c3ccc(-c4cc(Cl)ccc4-n4cnnn4)c[n+]3[O-])c2)cc1` (racemic) registered a bioavailability in data set [26] of 37.3%.
`[O-][n+]1cc(-c2c(-n3cnnn3)ccc(Cl)c2F)ccc1C(CC1CC1)n1cc(-c2cncs2)cn1` (racemic): the values for the half-life in data set [2] and in data set [23] were 0.05 h and 0.117 h, respectively.
For `[O-][n+]1cc(-c2c(-n3cnnn3)ccc(Cl)c2F)ccc1C(CC1CC1)n1cc(-c2c(F)cncc2Cl)cn1` (racemic) the same measures were 0.0333 h and 0.0333 h.
With `Cn1nccc1-c1cnn(C(CC2CC2)c2ccc(-c3c(-n4cnnn4)ccc(Cl)c3F)c[n+]2[O-])c1` (racemic), the half-life was 0.267 h in data set [2] and 0.45 h in data set [23].
On to `Cc1ncsc1-c1cnn(C(CC2CC2)c2ccc(-c3c(-n4cnnn4)ccc(Cl)c3F)c[n+]2[O-])c1` (racemic), for which the half-life was 0.183 h in data set [2] and 0.3 h in data set [23].
`Nc1ccc(-c2cnn(C(CC3CC3)c3ccc(-c4c(-n5cnnn5)ccc(Cl)c4F)c[n+]3[O-])c2)c(F)n1` (racemic): the half-life in data set [2] and in data set [23] was greater than 3 h each time.
As to `Cc1nc(N)ccc1-c1cnn(C(CC2CC2)c2ccc(-c3c(-n4cnnn4)ccc(Cl)c3F)c[n+]2[O-])c1` (racemic), the half-life was 1.67 h in [2] and 1.8 h in data set [23].
